Assay results taken from patent US10835624B2, “Compounds for imaging Tau protein aggregates” (AC IMMUNE S.A., priority 2016, dated 2020).
Marks after values point to notes of the source that are not given here.

Tests used:
[1] = test system: Tau (AD brain homogenate vs HC brain homogenate); test: Tracer signal in AD brain homogenate vs healthy control brain homogenate; type: binding, human; set-up: High signal to noise (AD brain homogenate/HC brain homogenate) / High signal to noise (further homogenates): key to the marks not given beside the values; details: for Ratio of tracer signal in AD brain homogenates/signal in HC brain homogenates: further homogenates
Tau pathology = test: Human imaging study (dynamic PET); type: in vivo
Protocol: In a clinical trial, subjects with AD or PSP as well as non-demented controls (NDC) underwent dynamic PET imaging for over 3 h following 370 MBq bolus injection of ^18F-3a.

MAO A = molecular target: T1, MAO A (Homo sapiens, UniProt P21397); test: MAO A FEH competition assay in human HC brain homogenate; type: binding; set-up: Low affinity to MAO A (IC50 in HC homogenate): key: −: poor; ∘: moderate; +: good; ++: very good; +++: excellent; details: for IC50: human healthy control brain homogenate, FEH competition
T1 construct: 20 μg of human brain homogenate (without AD pathology); from tissue; host or cells: human brain homogenate without AD pathology (healthy control)
T1 sequence (P21397 1-527): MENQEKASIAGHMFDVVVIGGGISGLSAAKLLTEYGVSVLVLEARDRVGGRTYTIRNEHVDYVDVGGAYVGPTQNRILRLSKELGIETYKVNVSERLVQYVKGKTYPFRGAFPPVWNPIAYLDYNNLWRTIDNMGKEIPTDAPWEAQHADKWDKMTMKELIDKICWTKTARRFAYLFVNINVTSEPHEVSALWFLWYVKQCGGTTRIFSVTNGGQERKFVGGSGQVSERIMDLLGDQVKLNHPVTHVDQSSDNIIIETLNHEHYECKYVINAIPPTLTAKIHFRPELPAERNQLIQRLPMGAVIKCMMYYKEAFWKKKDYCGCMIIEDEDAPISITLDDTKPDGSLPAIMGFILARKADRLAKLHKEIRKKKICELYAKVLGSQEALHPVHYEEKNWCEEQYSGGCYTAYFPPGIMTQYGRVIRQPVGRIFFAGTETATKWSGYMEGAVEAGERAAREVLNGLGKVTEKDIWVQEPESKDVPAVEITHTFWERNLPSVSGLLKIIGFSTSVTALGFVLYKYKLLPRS
Protocol: 20 μg of human brain homogenate (without AD pathology) was incubated with a dilution series of each test compound (1000 to 0.06 nM) in the presence of 800 Bq of ^18F-labeled MAO-A binder ([^18F]fluoroethyl harmine, FEH). The samples were shaken at 110 rpm for 45 min at 37° C. Samples were then filtered through GF/B 96 well filter plates and washed twice with 300 μL assay buffer (PBS containing 0.1% BSA and 2% DMSO). Thereafter, filter plates were sealed and a Fuji Film Imaging Plate (BAS-SR2025) was placed on top. The imaging plate was analyzed after overnight exposition using a Fuji Film BAS-5000. Non-specific signal was determined with samples containing ^18F-labeled FEH in the presence of assay buffer without brain substrate and competitor. […] The unblocked ^18F-labeled FEH signal was defined as total binding. IC50 values were calculated by Prism V6 (GraphPad) setting total binding to 100%.

[2] = test system: Tau (AD brain vs mouse brain homogenate); test: Tracer signal in AD brain vs mouse brain homogenate; type: binding, human / mouse; set-up: High signal to noise (AD brain/mouse brain homogenate): key: −: poor; ∘: moderate; +: good; ++: very good; +++: excellent
[3] = test system: Tau in human brain sections (AD, PSP, PiD, HC); test: Autoradiography in human brain slices; type: binding
Protocol: 18 micron thick frozen human brain slices and 6 micron thick human FFPE brain slices were examined via autoradiography. Brain sections were equilibrated for at least 1 h in 1×PBS solution prior to use in the experiment. Each brain section was covered with a solution of the ^18F-labeled tracer (200 Bq/μl, 500 μl) in 1×PBS. For blocking experiments with the corresponding ^19F-compound, an excess of the blocking compound (10 μM) was mixed with the ^18F-compound. The brain sections were allowed to incubate with the tracer solution at room temperature for 1 h, drained afterwards and placed in a slide holder. The slides were then washed sequentially with 1×PBS for 1 min; 70% EtOH in 1×PBS for 2 min; 30% EtOH in 1×PBS for 2 min; and 1×PBS for 1 min. The slides were allowed to air-dry before being placed on Fuji imaging plates […] for overnight exposure. The imaging plates were scanned and the signal was measured using Fuji software to produce an autoradiographic image of the brain section.

[4] = molecular target: T2, Monoamine oxidase A (MAO A) (Homo sapiens, UniProt P21397); details: Vermeiren et al. 2015; cited from earlier work
T2 sequence (P21397 1-527): T1 sequence (P21397 1-527)

## [18F]c1cc(-c2ccc3c(n2)[nH]c2ccncc23)ccn1 [^18F-3a]
[1]; AD brain homogenate vs HC brain homogenate
  Fold higher signal to noise ratio than 18F-1: 5.2 fold
[1]; further AD brain homogenates vs HC brain homogenate
  Fold higher signal to noise ratio than 18F-1: 8.2-13.5 fold
[1]; first of 3 values
  Ratio of tracer signal in AD brain homogenates/signal in HC brain homogenates: 14.0
[1]; second of 3 values
  Ratio of tracer signal in AD brain homogenates/signal in HC brain homogenates: 17.9
[1]; third of 3 values
  Ratio of tracer signal in AD brain homogenates/signal in HC brain homogenates: 33.8
[1]; grade, 3 different AD brain homogenates
  High signal to noise (further homogenates): +++
[1]; grade, 18F tracers
  High signal to noise (AD brain homogenate/HC brain homogenate): ++
Tau pathology; 370 MBq bolus injection, PET
  Brain uptake in human subjects: good
  Washout from non-target brain regions in human subjects: fast
Tau pathology; AD subjects
  Uptake in temporal, parietal and frontal lobes: focal asymmetric uptake
Tau pathology; PSP subjects
  Uptake in globus pallidus and substantia nigra: focal increased uptake
Tau pathology; non-demented controls (NDC)
  Uptake in choroid plexus, basal ganglia, striatum, amygdala, meninges or other off-target regions: no increased uptake
MAO A; HC brain homogenate
  Fold higher MAO A IC50 than compound 18F-1: 220 fold
  Fold higher MAO A IC50 than compound 18F-2: 11 fold
MAO A; grade, non-radioactive derivatives
  Low affinity to MAO A (IC50 in HC homogenate): +++
MAO A
  IC50: 1.1 µM
[2]; 18F tracers
  Ratio of tracer signal in AD brain/signal in mouse brain homogenate: 9.2^a
[2]; AD brain homogenate vs whole mouse brain homogenate
  Fold higher signal to noise ratio than 18F-1: 4.2 fold
[2]; grade
  High signal to noise (AD brain/mouse brain homogenate): ++
[3]
  Autoradiography signal in PSP brain sections: strong signal
  Autoradiography signal in PiD brain sections: strong signal
  Autoradiography signal in healthy control (HC) sections: no specific signal
[3]; blockable with excess cold compound
  Autoradiography signal in AD brain sections: strong punctated staining
[3]; grade, in house data
  Binding to AD brain (Braak stage 1/3), autoradiography on human brain slices: +++^a)
  Binding to AD brain (Braak stage 5/6), autoradiography on human brain slices: +++^a)
  Binding to PSP, autoradiography on human brain slices: +++^a)
  Binding to PiD, autoradiography on human brain slices: +++^a)

## [18F]c1ccc(-c2ccc3c(c2)[nH]c2ccncc23)cn1 [^18F-1]
[4]
  Kd: 0.0015 µM
MAO A
  IC50: 0.005 µM

## [18F]c1ccc(-c2ccc3c(n2)[nH]c2ccncc23)cn1 [^18F-2]
MAO A
  IC50: 0.1 µM
